Measured values published in paper PMC8047743 (ACS Omega, 2021).

Experiments:
HepG2 cells = assay: In vitro cytotoxicity on HepG2 cells; format: cell-based; conditions: 50 μM, 24 h, MTT
[1] = cited from earlier work

In the case of `Nc1c2c(nc3ccccc13)CCCC2` [tacrine, Tacrine], the “inhibitory rate (%) on HepG2 cells” value (HepG2 cells) is listed as 49.91 ± 0.61% and the “patients with increased serum alanine aminotransferase levels” value [1] is listed as “about 30%”.
